Experimental data as given in PubChem BioAssay (NCI).
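In this assay, cells in 96-well plates receive the compound at five concentrations for 48 hours. Endpoints are linearly interpolated between the surrounding concentrations. Abbreviation: GI50, concentration required for 50% inhibition of growth. TGI: concentration producing complete growth inhibition.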

What was measured:
Experiment in all cases: NCI anticancer screen, dose series, 48 h
[1] = system: A549 NSCLC
[2] = system: UACC-257 melanoma
[3] = system: U251 CNS
[4] = system: CCRF-CEM leukemia
[5] = system: TK-10 renal
[6] = system: HT29 colon
[7] = system: UO-31 renal
[8] = system: HS 578T breast
[9] = system: PC-3 prostate
[10] = system: SNB-19 CNS
[11] = system: 786-0 renal
[12] = system: SW-620 colon
[13] = system: BT-549 breast
[14] = system: MALME-3M melanoma
[15] = system: OVCAR-8 ovarian
[16] = system: CAKI-1 renal
[17] = system: COLO 205 colon
[18] = system: SK-MEL-2 melanoma
[19] = system: SK-OV-3 ovarian
[20] = system: OVCAR-4 ovarian
[21] = system: SF-268 CNS
[22] = system: A498 renal
[23] = system: KM12 colon
[24] = system: HCT-15 colon
[25] = system: SK-MEL-5 melanoma
[26] = system: SK-MEL-28 melanoma
[27] = system: T-47D breast
[28] = system: MDA-MB-468 breast
[29] = system: SNB-75 CNS
[30] = system: HL-60(TB) leukemia
[31] = system: HCC-2998 colon
[32] = system: NCI-H23 lung
[33] = system: DU-145 prostate
[34] = system: MCF7 breast
[35] = system: K-562 leukemia
[36] = system: RXF 393 renal
[37] = system: OVCAR-3 ovarian
[38] = system: NCI-H226 lung
[39] = system: M14 melanoma
[40] = system: IGROV1 ovarian
[41] = system: RPMI-8226 leukemia
[42] = system: MDA-MB-231 breast
[43] = system: LOX IMVI melanoma
[44] = system: UACC-62 melanoma
[45] = system: ACHN renal
[46] = system: OVCAR-5 ovarian
[47] = system: NCI-H522 lung
[48] = system: NCI-H460 lung
[49] = system: EKVX NSCLC
[50] = system: SN12C renal
[51] = system: HOP-92 NSCLC
[52] = system: NCI/ADR-RES ovarian
[53] = system: HCT-116 colon
[54] = system: MDA-MB-435
[55] = system: HOP-62 NSCLC
[56] = system: SF-295 CNS
[57] = system: SF-539 CNS
[58] = system: MOLT-4 leukemia
[59] = system: SR leukemia

## Cc1ccc(S(=O)(=O)c2nc(S(=O)(=O)c3ccc(C)cc3)c(Cl)s2)cc1
[1]
  GI50: > 100 µM
  TGI: > 100 µM
[2]
  GI50: > 100 µM
  TGI: > 100 µM
[3]
  GI50: > 100 µM
  TGI: > 100 µM
[4]
  GI50: > 100 µM
  TGI: > 100 µM
[5]
  GI50: > 100 µM
  TGI: > 100 µM
[6]
  GI50: > 100 µM
  TGI: > 100 µM
[7]
  GI50: > 100 µM
  TGI: > 100 µM
[8]
  GI50: > 100 µM
  TGI: > 100 µM
[9]
  GI50: > 100 µM
  TGI: > 100 µM
[10]
  GI50: > 100 µM
  TGI: > 100 µM
[11]
  GI50: > 100 µM
  TGI: > 100 µM
[12]
  GI50: > 100 µM
  TGI: > 100 µM
[13]
  GI50: > 100 µM
  TGI: > 100 µM
[14]
  GI50: > 100 µM
  TGI: > 100 µM
[15]
  GI50: > 100 µM
  TGI: > 100 µM
[16]
  GI50: > 100 µM
  TGI: > 100 µM
[17]
  GI50: > 100 µM
  TGI: > 100 µM
[18]
  GI50: > 100 µM
  TGI: > 100 µM
[19]
  GI50: > 100 µM
  TGI: > 100 µM
[20]
  GI50: > 100 µM
  TGI: > 100 µM
[21]
  GI50: > 100 µM
  TGI: > 100 µM
[22]
  GI50: > 100 µM
  TGI: > 100 µM
[23]
  GI50: > 100 µM
  TGI: > 100 µM
[24]
  GI50: > 100 µM
  TGI: > 100 µM
[25]
  GI50: > 100 µM
  TGI: > 100 µM
[26]
  GI50: > 100 µM
  TGI: > 100 µM
[27]
  GI50: > 100 µM
  TGI: > 100 µM
[28]
  GI50: > 100 µM
  TGI: > 100 µM
[29]
  GI50: > 100 µM
  TGI: > 100 µM
[30]
  GI50: > 100 µM
  TGI: > 100 µM
[31]
  GI50: > 100 µM
  TGI: > 100 µM
[32]
  GI50: > 100 µM
  TGI: > 100 µM
[33]
  GI50: > 100 µM
  TGI: > 100 µM
[34]
  GI50: > 100 µM
  TGI: > 100 µM
[35]
  GI50: > 100 µM
  TGI: > 100 µM
[36]
  GI50: > 100 µM
  TGI: > 100 µM
[37]
  GI50: > 100 µM
  TGI: > 100 µM
[38]
  GI50: > 100 µM
  TGI: > 100 µM
[39]
  GI50: > 100 µM
  TGI: > 100 µM
[40]
  GI50: > 100 µM
  TGI: > 100 µM
[41]
  GI50: > 100 µM
  TGI: > 100 µM
[42]
  GI50: > 100 µM
  TGI: > 100 µM
[43]
  GI50: > 100 µM
  TGI: > 100 µM
[44]
  GI50: > 100 µM
  TGI: > 100 µM
[45]
  GI50: > 100 µM
  TGI: > 100 µM
[46]
  GI50: > 100 µM
  TGI: > 100 µM
[47]
  GI50: > 100 µM
  TGI: > 100 µM
[48]
  GI50: > 100 µM
  TGI: > 100 µM
[49]
  GI50: > 100 µM
  TGI: > 100 µM
[50]
  GI50: > 100 µM
  TGI: > 100 µM
[51]
  GI50: > 100 µM
  TGI: > 100 µM
[52]
  GI50: > 100 µM
  TGI: > 100 µM
[53]
  GI50: > 100 µM
  TGI: > 100 µM
[54]
  GI50: > 100 µM
  TGI: > 100 µM
[55]
  GI50: > 100 µM
  TGI: > 100 µM
[56]
  GI50: > 100 µM
  TGI: > 100 µM
[57]
  GI50: > 100 µM
  TGI: > 100 µM
[58]
  GI50: > 100 µM
  TGI: > 100 µM

## COc1cc2c3c(n(CCCN4CCC[C@@H]4CO)c(=O)c2cc1OC)-c1cc2c(cc1C3=O)OCO2
[2]
  GI50: 12 µM
  TGI: 28.7 µM
[3]
  GI50: 0.358 µM
  TGI: 2.2 µM
[4]
  GI50: 0.027 µM
  TGI: 2.26 µM
[5]
  GI50: 16.2 µM
  TGI: 30.6 µM
[6]
  GI50: 1.07 µM
  TGI: 2.41 µM
[7]
  GI50: 0.762 µM
  TGI: 2.14 µM
[8]
  GI50: 4.57 µM
  TGI: 13 µM
[9]
  GI50: 1.18 µM
  TGI: 2.94 µM
[10]
  GI50: 0.408 µM
  TGI: 1.9 µM
[11]
  GI50: 0.647 µM
  TGI: 1.81 µM
[12]
  GI50: 0.399 µM
  TGI: 2.15 µM
[13]
  GI50: 1.37 µM
  TGI: 15.5 µM
[14]
  GI50: 1.37 µM
  TGI: 2.83 µM
[16]
  GI50: 0.344 µM
  TGI: 4.96 µM
[17]
  GI50: 1.23 µM
  TGI: 5.27 µM
[18]
  GI50: 16 µM
  TGI: 34.3 µM
[19]
  GI50: 0.52 µM
  TGI: 10.3 µM
[20]
  GI50: 1.7 µM
  TGI: 3.33 µM
[21]
  GI50: 0.404 µM
  TGI: 2.28 µM
[22]
  GI50: 14 µM
  TGI: 28.3 µM
[23]
  GI50: 1.3 µM
  TGI: 2.91 µM
[24]
  GI50: 1.26 µM
  TGI: 2.58 µM
[25]
  GI50: 0.966 µM
  TGI: 12.8 µM
[26]
  GI50: 1.65 µM
  TGI: 3.15 µM
[27]
  GI50: 0.576 µM
  TGI: 19.1 µM
[28]
  GI50: 0.318 µM
  TGI: 1.28 µM
[29]
  GI50: 0.63 µM
  TGI: 5.05 µM
[30]
  GI50: 0.871 µM
  TGI: 3.11 µM
[31]
  GI50: 1.4 µM
  TGI: 2.69 µM
[32]
  GI50: 0.207 µM
  TGI: 1.52 µM
[59]
  GI50: 0.214 µM
  TGI: > 100 µM
[33]
  GI50: 0.223 µM
  TGI: 1.71 µM
[34]
  GI50: 0.0411 µM
  TGI: 1.45 µM
[35]
  GI50: 1.27 µM
  TGI: > 100 µM
[36]
  GI50: 0.966 µM
  TGI: 2.56 µM
[37]
  GI50: 1.35 µM
  TGI: 2.91 µM
[38]
  GI50: 0.771 µM
  TGI: 2.62 µM
[39]
  GI50: 0.473 µM
  TGI: 1.91 µM
[40]
  GI50: 1.31 µM
  TGI: 2.64 µM
[41]
  GI50: 0.688 µM
  TGI: 3.95 µM
[42]
  GI50: 1.38 µM
  TGI: 2.75 µM
[43]
  GI50: 0.226 µM
  TGI: 1.61 µM
[44]
  GI50: 0.305 µM
  TGI: 9.23 µM
[45]
  GI50: 0.293 µM
  TGI: 1.32 µM
[46]
  GI50: 1.46 µM
  TGI: 2.8 µM
[47]
  GI50: 3.05 µM
  TGI: 20.8 µM
[48]
  GI50: 0.0841 µM
  TGI: 1.3 µM
[49]
  GI50: 1.44 µM
  TGI: 2.88 µM
[50]
  GI50: 0.461 µM
  TGI: 1.81 µM
[51]
  GI50: 4.27 µM
  TGI: 9.63 µM
[52]
  GI50: 0.356 µM
  TGI: 2.21 µM
[53]
  GI50: 0.451 µM
  TGI: 2.05 µM
[54]
  GI50: 1.22 µM
  TGI: 2.54 µM
[55]
  GI50: 0.191 µM
  TGI: 1.68 µM
[56]
  GI50: 0.0913 µM
  TGI: 1.47 µM
[57]
  GI50: 0.267 µM
  TGI: 1.15 µM
[58]
  GI50: < 0.0233 µM
  TGI: 4.13 µM
